# In patent US20190381017A1, “Compositions Comprising Serdexmethylphenidate Conjugates And Methods Of Use Thereof” (KemPharm, Inc., priority 2018, published 2019):
# Where a name gives a salt, the structure may show the parent alone.
# Experiments:
# [1] = test system: recreational stimulant users; test: Treatment-emergent adverse events, intravenous study (Example 2); settings: SDX Cl 30 mg (N=31), d-MPH HCl 15 mg (N=30)
# Method: A study was conducted in humans to assess the intravenous abuse potential of serdexmethylphenidate relative to unconjugated d-methylphenidate and placebo in recreational stimulant abusers. This was a Phase 1, randomized, double-blind study in which serdexmethylphenidate and d-methylphenidate were administered intravenously in recreational stimulant users with a history of non-oral abuse. In Part A of the study, subjects (Cohort 1) participated in a dose-escalation phase to determine the optimal dose of intravenous d-methylphenidate based on tolerability and abuse-related pharmacodynamic assessments. […] The doses of serdexmethylphenidate and d-methylphenidate are equivalent with respect to molar amount of d-methylphenidate. FDA-recommended abuse potential measures and blood samples were collected at different times after dosing. Safety assessments were performed throughout the study.
# [2] = test system: healthy, nondependent, recreational stimulant users with intranasal insufflation experience; test: Treatment-emergent adverse events, intranasal study (Example 5, Table 54)
# Method: The study consisted of a Screening Period, an in-clinic Drug Discrimination Phase, a Treatment Phase, and a Follow-Up Visit.
# All subjects were required to fast for at least 8 hours prior to each dose of study drug until approximately 4 hours after each dose. Abuse potential measures and pharmacokinetic samples were collected at different times after the administration of study drug. Subjects who successfully completed the Drug Discrimination Phase and who qualified for the Treatment Phase remained as inpatients to enter the Treatment Phase.
# [3] = d-MPH HCl 40 mg (N = 46), SDX Cl 80 mg (N = 46)
compound,measurement,setting,value
"COC(=O)[C@H](c1ccccc1)[C@H]1CCCCN1 [d-methylphenidate hydrochloride, d-threo-methylphenidate hydrochloride]","TEAE Change in sustained attention, % of subjects",[1],(6.7) %
same,"TEAE Change in sustained attention, n subjects",[1],2
same,"TEAE Dry mouth, % of subjects",[1],(20.0) %
same,"TEAE Dry mouth, n subjects",[1],6
same,"TEAE Energy increased, % of subjects",[1],(3.3) %
same,"TEAE Energy increased, n subjects",[1],1
same,"TEAE Euphoric mood, % of subjects",[1],(56.7) %
same,"TEAE Euphoric mood, n subjects",[1],17
same,"TEAE Feeling abnormal, % of subjects",[1],(6.7) %
same,"TEAE Feeling abnormal, n subjects",[1],2
same,"TEAE Feeling hot, % of subjects",[1],(20.0) %
same,"TEAE Feeling hot, n subjects",[1],6
same,"TEAE Feeling jittery, % of subjects",[1],(6.7) %
same,"TEAE Feeling jittery, n subjects",[1],2
same,"TEAE Feeling of relaxation, % of subjects",[1],(3.3) %
same,"TEAE Feeling of relaxation, n subjects",[1],1
same,"TEAE Headache, % of subjects",[1],(3.3) %
same,"TEAE Headache, n subjects",[1],1
same,"TEAE Heart rate increased, % of subjects",[1],(16.7) %
same,"TEAE Heart rate increased, n subjects",[1],5
same,"TEAE Hyperhidrosis (sweaty hands), % of subjects",[1],(13.3) %
same,"TEAE Hyperhidrosis (sweaty hands), n subjects",[1],4
same,"TEAE Hypervigilance, % of subjects",[1],(33.3) %
same,"TEAE Hypervigilance, n subjects",[1],10
same,"TEAE Nausea, % of subjects",[1],(10.0) %
same,"TEAE Nausea, n subjects",[1],3
same,"TEAE Palpitations, % of subjects",[1],(6.7) %
same,"TEAE Palpitations, n subjects",[1],2
same,"TEAE Paraesthesia (tingling), % of subjects",[1],(6.7) %
same,"TEAE Paraesthesia (tingling), n subjects",[1],2
same,"TEAE Sinus tachycardia, % of subjects",[1],(13.3) %
same,"TEAE Sinus tachycardia, n subjects",[1],4
same,"TEAE Somnolence, % of subjects",[1],(13.3) %
same,"TEAE Somnolence, n subjects",[1],4
same,"TEAE Tachycardia, % of subjects",[1],(13.3) %
same,"TEAE Tachycardia, n subjects",[1],4
same,TEAE: Abdominal distension,[2]; [3],0 n (%) [E]
same,TEAE: Agitation,[2]; [3],0 n (%) [E]
same,TEAE: Arthralgia,[2]; [3],0 n (%) [E]
same,TEAE: Catheter site haematoma,[2]; [3],0 n (%) [E]
same,TEAE: Catheter site swelling,[2]; [3],0 n (%) [E]
same,TEAE: Chest pain,[2]; [3],0 n (%) [E]
same,TEAE: Claustrophobia,[2]; [3],0 n (%) [E]
same,TEAE: Cough,[2]; [3],0 n (%) [E]
same,TEAE: Dizziness,[2]; [3],0 n (%) [E]
same,TEAE: Dysgeusia,[2]; [3],0 n (%) [E]
same,TEAE: Dyspepsia,[2]; [3],0 n (%) [E]
same,TEAE: Ecchymosis (skin discoloration),[2]; [3],0 n (%) [E]
same,TEAE: Epistaxis (nosebleed),[2]; [3],0 n (%) [E]
same,TEAE: Eye pain,[2]; [3],0 n (%) [E]
same,TEAE: Feeling of relaxation,[2]; [3],0 n (%) [E]
same,TEAE: Head discomfort,[2]; [3],0 n (%) [E]
same,TEAE: Infections and infestations,[2]; [3],0 n (%) [E]
same,TEAE: Irritability,[2]; [3],0 n (%) [E]
same,TEAE: Lacrimation increased,[2]; [3],0 n (%) [E]
same,TEAE: Nasal dryness,[2]; [3],0 n (%) [E]
same,TEAE: Pharyngitis,[2]; [3],0 n (%) [E]
same,TEAE: Phlebitis superficial,[2]; [3],0 n (%) [E]
same,TEAE: Pyrexia,[2]; [3],0 n (%) [E]
same,TEAE: Rhinorrhoea (runny nose),[2]; [3],0 n (%) [E]
same,TEAE: Sneezing,[2]; [3],0 n (%) [E]
same,TEAE: Upper-airway cough syndrome,[2]; [3],0 n (%) [E]
same,TEAE: Vomiting,[2]; [3],0 n (%) [E]
same,"typical stimulant-related adverse events (euphoric mood, hypervigilance, cardiac palpitations, tachycardia), frequency vs intranasal SDX Cl",[2]; d-MPH HCl 40 mg vs SDX Cl 80 mg,occurred more often
